Source: patent US10766903B2 (ALMAC DISCOVERY LIMITED, priority 2016, dated 2020)
pIC50: −log10 of the molar value.

Target: USP7 (Homo sapiens (Human), UniProt Q93009)
Assay: USP7 fluorescence polarisation (FP) biochemical assay, ubiquitin-Lys-TAMRA substrate
Conditions: Table 4, biochemical assay; average of at least duplicate experiments; read-out: USP7 IC50
Summary of the method: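 Full-length His6-USP7 (2.5 nM) incubated ± inhibitor (8-point dilutions, 200 to 0.1 μM before addition) in 50 mM HEPES pH 7.2, 150 mM NaCl, 0.5 mM EDTA, 5 mM DTT, 0.05% BSA, 0.05% CHAPS. Ubiquitin-Lys-TAMRA cleavage followed by FP (ex 530/em 575 nm) every 15 min for 1.5 h; normalised to no-compound control.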

Chain of USP7 (Q93009 whole entry): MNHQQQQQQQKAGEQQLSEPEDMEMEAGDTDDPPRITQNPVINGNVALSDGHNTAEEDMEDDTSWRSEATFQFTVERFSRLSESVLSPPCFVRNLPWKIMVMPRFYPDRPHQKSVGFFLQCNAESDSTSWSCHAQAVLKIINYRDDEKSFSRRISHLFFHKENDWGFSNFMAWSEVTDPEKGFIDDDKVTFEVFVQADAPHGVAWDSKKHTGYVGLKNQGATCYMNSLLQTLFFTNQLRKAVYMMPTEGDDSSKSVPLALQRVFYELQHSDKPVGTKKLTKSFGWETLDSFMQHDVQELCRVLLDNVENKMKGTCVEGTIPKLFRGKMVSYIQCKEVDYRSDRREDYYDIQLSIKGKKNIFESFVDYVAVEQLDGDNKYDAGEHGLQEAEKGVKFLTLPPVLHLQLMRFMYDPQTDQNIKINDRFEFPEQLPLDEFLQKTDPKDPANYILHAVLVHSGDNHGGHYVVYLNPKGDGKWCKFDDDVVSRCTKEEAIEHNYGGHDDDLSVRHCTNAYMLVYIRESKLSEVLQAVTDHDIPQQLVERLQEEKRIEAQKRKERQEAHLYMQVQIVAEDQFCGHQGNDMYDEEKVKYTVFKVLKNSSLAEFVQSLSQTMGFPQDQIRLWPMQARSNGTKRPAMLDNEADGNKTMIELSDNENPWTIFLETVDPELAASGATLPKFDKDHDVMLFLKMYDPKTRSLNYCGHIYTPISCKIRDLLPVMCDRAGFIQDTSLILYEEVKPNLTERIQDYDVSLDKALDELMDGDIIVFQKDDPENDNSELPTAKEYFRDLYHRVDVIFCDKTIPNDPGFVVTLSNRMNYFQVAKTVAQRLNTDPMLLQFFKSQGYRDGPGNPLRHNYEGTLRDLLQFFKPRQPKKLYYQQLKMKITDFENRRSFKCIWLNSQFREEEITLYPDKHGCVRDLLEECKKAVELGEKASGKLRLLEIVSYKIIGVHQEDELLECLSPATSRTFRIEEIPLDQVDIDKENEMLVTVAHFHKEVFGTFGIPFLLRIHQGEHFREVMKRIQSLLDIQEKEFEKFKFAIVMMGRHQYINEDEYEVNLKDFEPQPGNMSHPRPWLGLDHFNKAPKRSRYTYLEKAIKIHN

Compound	pIC50
CC1(C(=O)N2CCC(O)(Cn3cnc4c(cc(Br)n4-c4ccccc4)c3=O)CC2)CC1 [Example 223, 6-Bromo-3-((4-hydroxy-1-(1-methylcyclopropanecarbonyl)piperidin-4-yl)methyl)-7-phenyl-3H-pyrrolo[2,3-d]pyrimidin-4(7H)-one]	> 6.60
CC1(C(=O)N2CCC(O)(Cn3cnc4c(cc(Cl)n4-c4cccc(-n5cc(C(F)(F)F)cn5)c4)c3=O)CC2)CC1 [Example 225, 6-Chloro-3-((4-hydroxy-1-(1-methylcyclopropanecarbonyl)piperidin-4-yl)methyl)-7-(3-(4-(trifluoromethyl)-1H-pyrazol-1-yl)phenyl)-3H-pyrrolo[2,3-d]pyrimidin-4(7H)-one]	3.70 to 6.00
CC1(C(=O)N2CCC(O)(Cn3cnc4c(cc(Cl)n4-c4cccc(N5CCOCC5)c4)c3=O)CC2)CC1 [Example 226, 6-Chloro-3-((4-hydroxy-1-(1-methylcyclopropanecarbonyl)piperidin-4-yl)methyl)-7-(3-morpholinophenyl)-3H-pyrrolo[2,3-d]pyrimidin-4(7H)-one]	> 6.60
CC1(C(=O)N2CCC(O)(Cn3cnc4c(cc(Cl)n4-c4cccc(-n5cc(F)cn5)c4)c3=O)CC2)CC1 [Example 227, 6-Chloro-7-(3-(4-fluoro-1H-pyrazol-1-yl)phenyl)-3-((4-hydroxy-1-(1-methylcyclopropanecarbonyl)piperidin-4-yl)methyl)-3H-pyrrolo[2,3-d]pyrimidin-4(7H)-one]	> 6.60
Cn1nccc1-c1cc(-n2c(Cl)cc3c(=O)n(CC4(O)CCN(C(=O)C5(C)CC5)CC4)cnc32)ccc1F [Example 231, 6-Chloro-7-(4-fluoro-3-(1-methyl-1H-pyrazol-5-yl)phenyl)-3-((4-hydroxy-1-(1-methylcyclopropanecarbonyl)piperidin-4-yl)methyl)-3H-pyrrolo[2,3-d]pyrimidin-4(7H)-one]	6.00 to 6.60
Cn1cc(-c2cc(-n3c(Cl)cc4c(=O)n(CC5(O)CCN(C(=O)C6(C)CC6)CC5)cnc43)ccc2F)cn1 [Example 233, 6-Chloro-7-(4-fluoro-3-(1-methyl-1H-pyrazol-4-yl)phenyl)-3-((4-hydroxy-1-(1-methylcyclopropanecarbonyl)piperidin-4-yl)methyl)-3H-pyrrolo[2,3-d]pyrimidin-4(7H)-one]	> 6.60
CC1(C(=O)N2CCC(O)(Cn3cnc4c(cc(C#N)n4-c4ccccc4)c3=O)CC2)CC1 [Example 234, 3-((4-Hydroxy-1-(1-methylcyclopropanecarbonyl)piperidin-4-yl)methyl)-4-oxo-7-phenyl-4,7-dihydro-3H-pyrrolo[2,3-d]pyrimidine-6-carbonitrile]	> 6.60
[2H]C1([2H])Oc2ccc(-n3c(Cl)cc4c(=O)n(CC5(O)CCN(C(=O)C6(C)CC6)CC5)cnc43)cc2O1 [Example 235, 7-(Benzo[d][1,3]dioxol-5-yl-2,2-d2)-6-chloro-3-((4-hydroxy-1-(1-methylcyclopropane-1-carbonyl)piperidin-4-yl)methyl)-3,7-dihydro-4H-pyrrolo[2,3-d]pyrimidin-4-one]	> 6.60
Cn1nc2c(=O)n(CC3(O)CCN(C(=O)C4(C)CC4)CC3)cnc2c1-c1ccc(CN)cc1 [Example 237, 3-(4-(Aminomethyl)phenyl)-6-((4-hydroxy-1-(1-methylcyclopropane-1-carbonyl)piperidin-4-yl)methyl)-2-methyl-2,6-dihydro-7H-pyrazolo[4,3-d]pyrimidin-7-one]	3.70 to 6.00
Cn1nc2c(=O)n(CC3(O)CCN(C(=O)c4cnc(C5CC5)o4)CC3)cnc2c1-c1ccc(CN)cc1 [Example 238, 3-(4-(Aminomethyl)phenyl)-6-((1-(2-cyclopropyloxazole-5-carbonyl)-4-hydroxypiperidin-4-yl)methyl)-2-methyl-2,6-dihydro-7H-pyrazolo[4,3-d]pyrimidin-7-one]	6.00 to 6.60
COc1ccc(-n2c(Cl)cc3c(=O)n(CC4(O)CCN(C(=O)C5(C)CC5)CC4)cnc32)cc1OC [Example 239, 6-Chloro-7-(3,4-dimethoxyphenyl)-3-((4-hydroxy-1-(1-methylcyclopropane-1-carbonyl)piperidin-4-yl)methyl)-3,7-dihydro-4H-pyrrolo[2,3-d]pyrimidin-4-one]	> 6.60
C[C@H](CC(=O)N1CCC(O)(Cn2cnc3c(-c4ccc(C(=O)O)cc4)n(C)nc3c2=O)CC1)c1ccccc1 [Example 243, (R)-4-(6-((4-Hydroxy-1-(3-phenylbutanoyl)piperidin-4-yl)methyl)-2-methyl-7-oxo-6,7-dihydro-2H-pyrazolo[4,3-d]pyrimidin-3-yl)benzoic Acid]	3.70 to 6.00

The remaining lines, values ahead:

pIC50	Compound
> 6.60	CC1(C(=O)N2CCC(O)(Cn3cnc4c(cc(Cl)n4-c4cccc(C5CC5)c4)c3=O)CC2)CC1 [Example 218, 6-Chloro-7-(3-cyclopropylphenyl)-3-((4-hydroxy-1-(1-methylcyclopropanecarbonyl)piperidin-4-yl)methyl)-3H-pyrrolo[2,3-d]pyrimidin-4(7H)-one]
> 6.60	Cn1cc(C(=O)N2CCC(O)(Cn3cnc4c(cc(Cl)n4-c4cccc(C5CC5)c4)c3=O)CC2)cn1 [Example 219, 6-Chloro-7-(3-cyclopropylphenyl)-3-((4-hydroxy-1-(1-methyl-1H-pyrazole-4-carbonyl)piperidin-4-yl)methyl)-3H-pyrrolo[2,3-d]pyrimidin-4(7H)-one]
> 6.60	CC1(C(=O)N2CCC(O)(Cn3cnc4c(cc(Cl)n4-c4ccc(C5CC5)cc4)c3=O)CC2)CC1 [Example 220, 6-Chloro-7-(4-cyclopropylphenyl)-3-((4-hydroxy-1-(1-methylcyclopropanecarbonyl)piperidin-4-yl)methyl)-3H-pyrrolo[2,3-d]pyrimidin-4(7H)-one]
> 6.60	O=C(c1cnc(C2CC2)o1)N1CCC(O)(Cn2cnc3c(cc(Cl)n3-c3ccc(C4CC4)cc3)c2=O)CC1 [Example 221, 6-Chloro-3-((1-(2-cyclopropyloxazole-5-carbonyl)-4-hydroxypiperidin-4-yl)methyl)-7-(4-cyclopropylphenyl)-3H-pyrrolo[2,3-d]pyrimidin-4(7H)-one]
> 6.60	O=C(c1cnc(C2CC2)o1)N1CCC(O)(Cn2cnc3c(cc(Br)n3-c3ccccc3)c2=O)CC1 [Example 222, 6-Bromo-3-((1-(2-cyclopropyloxazole-5-carbonyl)-4-hydroxypiperidin-4-yl)methyl)-7-phenyl-3H-pyrrolo[2,3-d]pyrimidin-4(7H)-one]
> 6.60	O=C(c1cnc(C2CC2)o1)N1CCC(O)(Cn2cnc3c(cc(I)n3-c3ccccc3)c2=O)CC1 [Example 224, 3-((1-(2-Cyclopropyloxazole-5-carbonyl)-4-hydroxypiperidin-4-yl)methyl)-6-iodo-7-phenyl-3H-pyrrolo[2,3-d]pyrimidin-4(7H)-one]
> 6.60	O=C(c1cnc(C2CC2)o1)N1CCC(O)(Cn2cnc3c(cc(Cl)n3-c3ccc(Cl)cc3)c2=O)CC1 [Example 228, 6-Chloro-7-(4-chlorophenyl)-3-((1-(2-cyclopropyloxazole-5-carbonyl)-4-hydroxypiperidin-4-yl)methyl)-3H-pyrrolo[2,3-d]pyrimidin-4(7H)-one]
6.00 to 6.60	Cn1cc(C(=O)N2CCC(O)(Cn3cnc4c(cc(Cl)n4-c4ccc(Cl)cc4)c3=O)CC2)cn1 [Example 229, 6-Chloro-7-(4-chlorophenyl)-3-((4-hydroxy-1-(1-methyl-1H-pyrazole-4-carbonyl)piperidin-4-yl)methyl)-3H-pyrrolo[2,3-d]pyrimidin-4(7H)-one]
6.00 to 6.60	Cn1nccc1-c1cc(-n2c(Cl)cc3c(=O)n(CC4(O)CCN(C(=O)c5cnc(C6CC6)o5)CC4)cnc32)ccc1F [Example 230, 6-Chloro-3-((1-(2-cyclopropyloxazole-5-carbonyl)-4-hydroxypiperidin-4-yl)methyl)-7-(4-fluoro-3-(1-methyl-1H-pyrazol-5-yl)phenyl)-3H-pyrrolo[2,3-d]pyrimidin-4(7H)-one]
> 6.60	Cn1cc(-c2cc(-n3c(Cl)cc4c(=O)n(CC5(O)CCN(C(=O)c6cnc(C7CC7)o6)CC5)cnc43)ccc2F)cn1 [Example 232, 6-Chloro-3-((1-(2-cyclopropyloxazole-5-carbonyl)-4-hydroxypiperidin-4-yl)methyl)-7-(4-fluoro-3-(1-methyl-1H-pyrazol-4-yl)phenyl)-3H-pyrrolo[2,3-d]pyrimidin-4(7H)-one]
> 6.60	[2H]C1([2H])Oc2ccc(-n3c(Cl)cc4c(=O)n(CC5(O)CCN(C(=O)c6cnc(C7CC7)o6)CC5)cnc43)cc2O1 [Example 236, 7-(Benzo[d][1,3]dioxol-5-yl-2,2-d2)-6-chloro-3-((1-(2-cyclopropyloxazole-5-carbonyl)-4-hydroxypiperidin-4-yl)methyl)-3,7-dihydro-4H-pyrrolo[2,3-d]pyrimidin-4-one]
> 6.60	COc1ccc(-n2c(Cl)cc3c(=O)n(CC4(O)CCN(C(=O)c5cnc(C6CC6)o5)CC4)cnc32)cc1OC [Example 240, 6-Chloro-3-((1-(2-cyclopropyloxazole-5-carbonyl)-4-hydroxypiperidin-4-yl)methyl)-7-(3,4-dimethoxyphenyl)-3,7-dihydro-4H-pyrrolo[2,3-d]pyrimidin-4-one]
> 6.60	CC1(C(=O)N2CCC(O)(Cn3cnc4c(cc(Cl)n4-c4ccc(CN)cc4)c3=O)CC2)CC1 [Example 241, 7-(4-(Aminomethyl)phenyl)-6-chloro-3-((4-hydroxy-1-(1-methylcyclopropane-1-carbonyl)piperidin-4-yl)methyl)-3,7-dihydro-4H-pyrrolo[2,3-d]pyrimidin-4-one]
> 6.60	NCc1ccc(-n2c(Cl)cc3c(=O)n(CC4(O)CCN(C(=O)c5cnc(C6CC6)o5)CC4)cnc32)cc1 [Example 242, 7-(4-(Aminomethyl)phenyl)-6-chloro-3-((1-(2-cyclopropyloxazole-5-carbonyl)-4-hydroxypiperidin-4-yl)methyl)-3,7-dihydro-4H-pyrrolo[2,3-d]pyrimidin-4-one]
